One may read the bioavailability as dose-corrected exposure relative to a reference, in per cent. Read a high bioavailability as much systemic uptake. One may read the IC50 as the point on the concentration scale where inhibition reaches its midpoint. By Papp A→B is commonly meant how fast a substance crosses the layer from the apical side. Broadly, the Papp B→A is the apparent permeability from the basolateral to the apical side of a cell layer. The term chromatographic logD denotes lipophilicity estimated from chromatographic retention. One may read the AUC as the area under the concentration-time curve, a measure of exposure. Low readings indicate low exposure, high ones high exposure. Usually solubility stands for the dissolved amount per volume that the medium holds. Read a high solubility as much dissolved substance. Broadly, the Cmax is the highest concentration seen after dosing. Broadly, the AUC(0-t) is the area under the concentration-time curve up to a stated or last time point. High values mean more exposure, low ones less exposure. For orientation: Tmax means the time from dosing to the highest level.

These results are taken from publication PMC6089501 (Journal of Medicinal Chemistry, 2018).

≈ marks a conversion by molar mass, not a printed value. Where “and” joins values, the source holds several entries; their conditions need not be identical. Equal entries are not always repeated. Where two headings read alike, the source gives them in different places.

Data set [1] can be described thus: in vivo. To be noted: female, C57 Black, mouse; for bioavailability: po, 10 mg/kg; for AUC: iv, 3 mg/kg.
Method: (§1) Test compound was dosed as a bolus solution intravenously at 3 mg of free base/kilogram (dose volume 5 mL/kg; dose vehicle Saline or 10% DMSO; 40% PEG400; 50% saline) to female C57 Black (n = 3) or dosed orally by gavage as a solution at 10 mg of free base/kilogram (dose volume 10 mL/kg; dose vehicle 10% DMSO; 40% PEG400; 50% distilled water) to female C57 Black (n = 3/dose level). Blood samples were taken from each mouse tail vein at predetermined time points postdose, mixed with two volumes of distilled water, and stored frozen until UPLC/MS/MS analysis. Pharmacokinetic parameters were derived from the blood concentration time curve using PK Solutions software v 2.0 (Summit Research Services, USA).
Data set [2] deals with Vero cells. In words: cells. To be noted: Chlorocebus sabaeus, read-out: VERO IC50.
Method: (§2) Compounds were solubilized in DMSO and assayed as a 10-point 3-fold serial dilution. Compounds were incubated with cells for 2 days at 37 °C, 5% CO2. CellTiter-Glo Reagent (Promega) was added and relative luminescent units (RLU) measured.
The test system of data set [3] is Madin Darby Canine Kidney (MDCK). To be noted: for P-glycoprotein (P-gp) efflux (in words) / permeability (in words): MDCK-MDR1; for P-gp Efflux B→ A/A → B: dog, MDCK.
For data set [4] the following is noted: female, C57 Black, mouse, in vivo, iv, 3 mg/kg.
Method: as §1
A short description of data set [5]: in vitro. The following applies: dog, MDCK-MDR1.
For data set [6] the following is noted: for Cli mouse / scaled Clpre: female, CD1, mouse, pH 7.4; for CL mouse MEAN / in vitro mouse Clint: microsomes.
The test system of data set [7] is M. tuberculosis H37Rv. As to the kind of experiment: microbe, parasite or virus in culture. The data set is classed as cell-based, Mycobacterium tuberculosis. To be noted: for MIC / MIC90 / IC90: Mycobacterium tuberculosis, H37RV; for MIC90: read-out: MIC (MIC90); for IC90: read-out: TB-IC90_OD GEOM_MEAN.
Data set [8] in a line: physchem.
Data set [9] can be described thus: physchem. This is another data set of the same source.
Method: (§3) Samples are stirred for 20 h and filtered through a 0.7 μm GF filter. The filtrate was analyzed by HPLC assay for concentration against DMSO standard curve.[40]
A short description of data set [10]: physchem. The source holds these as a separate data set.
Data set [11] concerns Vero cells. The following applies: read-out: VERO IC50.
Method: as §2
The subject of data set [12] is M. tuberculosis H37Rv. The data set is classed as cell-based, Mycobacterium tuberculosis.
Data set [13] has as its system M. tuberculosis H37Rv. More on the design: species or system Mycobacterium tuberculosis. To be noted: in vivo.
For data set [14] the following is noted: Sprague-Dawley, rat, in vivo.
Method: (§4) Test compound was dosed orally by gavage at 5 mg of free base/kilogram (dose volume 5 mL/kg; dose vehicle 1.0% carboxy methyl cellulose, CMC) to male Sprague–Dawley Rats (n = 1 per time point). At predetermined time points, blood samples (100 μL) were taken from the hepatic portal vein into a tube containing EDTA. Immediately afterward, the remaining blood was taken by cardiac puncture into a separate tube containing EDTA to determine the concentration of compound reaching the systemic circulation. The blood was mixed with two volumes of distilled water and stored frozen until UPLC/MS/MS analysis. Pharmacokinetic parameters were derived from the blood concentration time curve using PK Solutions software v 2.0 (Summit Research Services, USA).
For data set [15] the following is noted: pH 2/6/7.4.
Method: as §3
A short description of data set [16]: in vivo. To be noted: Sprague-Dawley, rat; for AUC(0-t) at 24 h: AUC 0–24.
Method: as §4
The conditions of data set [17]: C57 Black, mouse, in vivo, po.
Method: Analysis of 37 in Mouse Blood samples (10mg/kg PO and 3mg/kg IV)

As to `CC1(COc2cc(N3CCOCC3)sc2C(N)=O)COC1` [Compound 46, 3-((3-Methyloxetan-3-yl)methoxy)-5-morpholinothiophene-2-carboxamide], in data set [1], the bioavailability was 38%. The IC50 in data set [2] is more than 100 µM. In addition, in [3], the “P-glycoprotein (P-gp) efflux (in words)” value is reported as “no likely P-glycoprotein (P-gp) efflux issues”, the “permeability (in words)” value was “good permeability” and the “P-gp Efflux B→ A/A → B” value came to 2. In data set [4], this compound displayed a CLB of 31 mL/min/kg and a T1/2 of 0.7 h. For the same compound, in [5], the Papp A→B was 19 ×10⁻⁶ cm/s and the Papp B→A was found to be 35 ×10⁻⁶ cm/s. In [6], the Cli mouse is given as 2.1 mL.min^–1.g^–1, the “scaled Clpre” value is 56 mL/min/kg, the “CL mouse MEAN” value amounted to 2.051 mL/min/g and the “in vitro mouse Clint” value came to 2.1 mL/min/g. Moreover, in data set [7], the “antitubercular whole cell activity (in words)” value is on record as “no measurable MIC activity” and the MIC90 was more than 20 µM. Also, in data set [7] (read-out: H37Rv MIC), the MIC is more than 6.2 µg/mL. This compound also gave a chromatographic logD in [8] of 0.707.
In data set [1], `NC(=O)c1cc(N2CCOCC2)ccc1OCCc1ccccc1` [Compound 55, 5-Morpholino-2-(2-phenylethoxy)benzamide] had an AUC of 1590 ng·h/mL and a bioavailability of 5%. In data set [9] (pH 2), this compound gave a solubility of 600 µg/mL (≈ 1840 µM). This compound also displayed a solubility in data set [9] (pH 6) of 300 µg/mL (≈ 919 µM). The compound further came in with a solubility in [9] (pH 7.4) of 300 µg/mL (≈ 919 µM). For the same compound, in data set [2], the 50% inhibitory concentration (IC50) was more than 100 µM. In data set [4], this compound had a CLB of 32 mL/min/kg and a T1/2 of 1.2 h. Also, in data set [6], the Cli mouse is 3.8 mL.min^–1.g^–1, the “scaled Clpre” value amounted to 68 mL/min/kg, the “CL mouse MEAN” value was found to be 3.79 mL/min/g and the “in vitro mouse Clint” value is 4 mL/min/g. This compound yielded a solubility in data set [10] (pH 2.4) of 1300 µg/mL (≈ 3980 µM). The compound further returned a solubility in data set [10] (pH 6) of 300 µg/mL (≈ 919 µM). Further, in data set [7] (read-out: H37Rv MIC), the MIC was determined as 1.9 µg/mL. The MIC90 in data set [7] is 5.7 µM (≈ 1.86 µg/mL). The compound also showed a chromatographic logD in data set [8] of 1.9.
In the case of `CC(=O)c1sc(N2CCOCC2)cc1OCCc1ccccc1` [Compound 20, 1-[5-Morpholino-3-(2-phenylethoxy)-2-thienyl]ethanone], the solubility came out at 600 µg/mL (≈ 1810 µM) in data set [9] (pH 2), 30 µg/mL (≈ 90.5 µM) in data set [9] (pH 7.4) and 400 µg/mL (≈ 1210 µM) in data set [10] (pH 2.4). For the same compound, the half-inhibitory concentration (IC50) in data set [2] is 84 µM; in [11], 82.2 µM. This compound returned a Cli mouse in data set [6] of 41 mL.min^–1.g^–1. Also, the “CL mouse MEAN” value in [6] is 41.42 mL/min/g. For the same compound, in data set [7], the MIC90 was 0.42 µM (≈ 0.139 µg/mL). Further, in data set [7], the IC90 was found to be 0.424 µM. The chromatographic logD in data set [8] turned out to be 2.78.
Turning to `CCc1nc2ccc(Cl)cn2c1C(=O)NCc1ccc(N2CCC(c3ccc(OC(F)(F)F)cc3)CC2)cc1` [Compound Q203], the “ATP levels versus growth (OD590)” value in data set [12] is recorded as “depletion of ATP occurred at lower concentrations than required to inhibit growth”.
In turn, `NC(=O)c1sc(CN2CCOCC2)cc1OCCc1ccccc1` [Compound 18, 5-(Morpholinomethyl)-3-(2-phenylethoxy)thiophene-2-carboxamide] showed a solubility in [9] (pH 2) of 700 µg/mL (≈ 2020 µM). In addition, the solubility in [9] (pH 7.4) stood at 300 µg/mL (≈ 866 µM). Moreover, in data set [2], the IC50 is more than 100 µM. In [3], the “P-glycoprotein (P-gp) efflux (in words)” value is “no likely P-glycoprotein (P-gp) efflux issues”, the “permeability (in words)” value is given as “good permeability” and the “P-gp Efflux B→ A/A → B” value came out at 0.8. In [5], the apical-to-basolateral permeability (Papp A→B) was determined as 62 ×10⁻⁶ cm/s and the Papp B→A was 53 ×10⁻⁶ cm/s. In [6], the Cli mouse was found to be 3 mL.min^–1.g^–1 and the “CL mouse MEAN” value was 3.219 mL/min/g. The compound also returned a solubility in [10] (pH 2.4) of 1700 µg/mL (≈ 4910 µM). Moreover, in data set [7], the “antitubercular whole cell activity (in words)” value is “not active”, the MIC90 is more than 20 µM and the IC90 is more than 20 µM. In data set [8], this compound showed a chromatographic logD of 1.71.
On to `NC(=O)c1sc(N2CCOCC2)cc1OCCc1ccc(OC(F)(F)F)cc1` [Compound 37, 5-Morpholino-3-[2-[4-(trifluoromethoxy)phenyl]ethoxy]thiophene-2-carboxamide], for which, in data set [1], the AUC was 1730 ng·h/mL and the bioavailability was 18%. This compound came in with a solubility in [9] (pH 2) of 2 µg/mL (≈ 4.8 µM). Moreover, the solubility in data set [9] (pH 6) stood at 1 µg/mL (≈ 2.4 µM). This compound also had a solubility in data set [9] (pH 7.4) of 1 µg/mL (≈ 2.4 µM). In addition, in [13], the “growth of the bacteria in the lungs compared to untreated mice (in words)” value is on record as “able to inhibit the growth of the bacteria in the lungs”; the “log CFUs per mouse (lungs), individual mice” value was 6.1 log CFU and 5.8 log CFU; the “log CFUs per mouse (lungs), mean” value is listed as 6.0 log CFU. The “log reduction of colony forming unit (CFU) counts in the lungs” value in [13] (po, 100 mg/kg) was 0.8 log. Further, the IC50 in data set [2] was determined as 39 µM. In data set [14] (iv, 1 mg/kg), this compound gave a Clb of 30 and a T1/2 of 0.5 h. In [14] (male, po, 5 mg/kg), this compound came in with a peak concentration (Cmax) of 140 ng/mL and an F of 12%. The “AUC 0–24” value in data set [14] (male, po, 5 mg/kg, 24 h) is reported as 19. Further, in [3], the “P-glycoprotein (P-gp) efflux (in words)” value was “no likely P-glycoprotein (P-gp) efflux issues”, the “permeability (in words)” value is recorded as “good permeability” and the “P-gp Efflux B→ A/A → B” value came to 0.8. For the same compound, the CLB in data set [4] is reported as 29 mL/min/kg. In data set [15], the “solubility in HTSA (in words)” value is listed as “poor solubility”. In data set [5], this compound gave an apical-to-basolateral permeability (Papp A→B) of 25 ×10⁻⁶ cm/s and a Papp B→A of 20 ×10⁻⁶ cm/s. In addition, in data set [6], the Cli mouse turned out to be 8 mL.min^–1.g^–1, the “scaled Clpre” value came out at 76 mL/min/kg, the “CL mouse MEAN” value is recorded as 8.159 mL/min/g and the “in vitro mouse Clint” value was determined as 8 mL/min/g. Further, the area under the curve AUC(0-t) at 24 h in data set [16] (iv, 1 mg/kg) is 550 ng·h/mL. Moreover, in [16] (male, po, 5 mg/kg), the Tmax was 1 h and the AUC(0-t) at 24 h is 583 ng·h/mL. The same compound returned a Cmax in data set [16] (male, po, 5 mg/kg, Cmax) of 200 ng/mL. Moreover, in [17], the “% Peak Area, metabolite A N or S-oxide” value was found to be 3%; the “% Peak Area, metabolite B De-ethylation + oxidation” value was determined as 3%; the “% Peak Area, metabolite C De-ethylation” value was found to be 2%; the “% Peak Area, metabolite D Oxidation (x3)” value is on record as 6%. The “% Peak Area, metabolite E Hydroxylation” value in [17] was determined as 27%. The MIC in [7] (read-out: H37Rv MIC) turned out to be 0.083 µg/mL. Besides, in data set [7], the MIC90 amounted to 0.24 µM (≈ 0.0999 µg/mL) and the IC90 amounted to 0.217 µM. For the same compound, in data set [7] (read-out: MIC WT), the MIC amounted to 0.24 µM. Further, the chromatographic logD in data set [8] was determined as 2.68. In data set [11], the IC50 is 37 µM.
`CO[C@H]1/C=C/O[C@@]2(C)Oc3c(C)c(O)c4c(O)c(c(/C=N/N5CCN(C)CC5)c(O)c4c3C2=O)NC(=O)/C(C)=C\C=C\[C@H](C)[C@H](O)[C@@H](C)[C@@H](O)[C@@H](C)[C@H](OC(C)=O)[C@@H]1C` [rifampicin]: the “ATP levels versus growth (OD590)” value in [12] is given as “correlated with growth”.
